Measured values from US10207991B2, “Isoindoline compositions and methods for treating neurodegenerative disease” (priority 2014, dated 2019).

experiment: Mouse liver microsome (MLM) stability; type: in vitro ADME
Method: A first pharmacokinetic study was performed in microsomes of mice mouse liver microsomes, MLM) by a commercial contract research organization. The studies were performed according to Obach, R. S et al. (1997) J. Pharmacol. Exp. Ther., 283: 46-58, which is incorporated herein by reference.

First: COc1cc(CCC(C)(C)N2Cc3cccc(S(C)(=O)=O)c3C2)ccc1O [compound 64]
Second: CC(C)(C)Oc1cc(CCC(C)(C)N2Cc3cccc(S(C)(=O)=O)c3C2)ccc1O [compound 66]
The “Mouse liver microsomes, MLM t½” value of the first is 5.2-fold higher: 52 min for the first, 10 min for the second.

Going from `CC(C)Oc1ccc(CC[C@@H](C)N2Cc3cc4c(cc3C2)OCO4)cc1OC(C)C` [compound 40] to `CC(C)Oc1cc(CC[C@@H](C)N2Cc3cc4c(cc3C2)OCO4)ccc1O` [compound 25], the “Mouse liver microsomes, MLM t½” value falls from 6 min to 4 min (1.5-fold).

`COc1cc(CCC(C)(C)N2Cc3cc4c(cc3C2)OCO4)ccc1OCCO` [compound 47] and `COc1cc(CC[C@@H](C)N2Cc3cc4c(cc3C2)OCO4)ccc1OCCO` [compound 52] are within 1.5-fold of each other in “Mouse liver microsomes, MLM t½” value: 91 min for the first, 97 min for the second.

First: C[C@H](CCc1ccc(Cl)c(Cl)c1)N1Cc2ccc(C(F)(F)F)cc2C1 [compound 4]
Second: C[C@H](CCc1ccc(Cl)c(Cl)c1)N1Cc2ccc(F)cc2C1.Cl [compound 12]
The “Mouse liver microsomes, MLM t½” value of the first is 3.1-fold higher: 40 min for the first, 13 min for the second.

Compared with `COc1cc(CC[C@@H](C)N2Cc3ccc(C(F)(F)F)cc3C2)ccc1O` [compound 2], `COc1cc(CC[C@@H](C)N2Cc3ccc(Cl)cc3C2)ccc1O` [compound 1] is 2.5-fold lower in “Mouse liver microsomes, MLM t½” value: 28 min for the first, 11 min for the second.

Going from `Cc1ccc2c(c1)CN([C@H](C)CCc1ccc(Cl)c(Cl)c1)C2` [compound 13] to `COc1ccc2c(c1)CN([C@H](C)CCc1ccc(Cl)c(Cl)c1)C2.Cl` [compound 15], the “Mouse liver microsomes, MLM t½” value rises from 3 min to 15 min (5-fold).

First: CC(C)COc1cc(CCC(C)(C)N2Cc3cccc(C(=O)N4CCOCC4)c3C2)ccc1O [compound 90]
Second: COc1cc(CCC(C)(C)N2Cc3cccc(C(=O)N4CCOCC4)c3C2)ccc1O [compound 80]
The “Mouse liver microsomes, MLM t½” value of the first is 5-fold lower: 9 min for the first, 45 min for the second.

`C[C@H](CCc1ccc(Cl)c(Cl)c1)N1Cc2cccc(F)c2C1` [compound 9] and `C[C@H](CCc1ccc(Cl)c(Cl)c1)N1Cc2cccc(Cl)c2C1.Cl` [compound 16] are the same in “Mouse liver microsomes, MLM t½” value: 12 min for the first, 12 min for the second.

First: C[C@H](CCc1ccc(OC(=O)N(C)C)c(OC(F)(F)F)c1)N1Cc2ccc(F)cc2C1 [compound 43]
Second: C[C@H](CCc1ccc(OC(=O)N(C)C)c(OC(F)(F)F)c1)N1Cc2cccc(F)c2C1 [compound 41]
The “Mouse liver microsomes, MLM t½” value of the first is 1.8-fold lower: 5 min for the first, 9 min for the second.

`COc1cc2c(cc1OC)CN([C@@H](C)CCc1ccc(Cl)c(Cl)c1)C2` [compound 20] and `C[C@H](CCc1ccc(Cl)c(Cl)c1)N1Cc2cc(Cl)c(Cl)cc2C1` [compound 5] are within 1.5-fold of each other in “Mouse liver microsomes, MLM t½” value: 43 min for the first, 53 min for the second.

First: CC(C)(C)Oc1cc(CCC(C)(C)N2Cc3ccc(S(C)(=O)=O)cc3C2)ccc1O [compound 62]
Second: CC(C)COc1cc(CCC(C)(C)N2Cc3ccc(S(C)(=O)=O)cc3C2)ccc1O [compound 87]
The “Mouse liver microsomes, MLM t½” value of the first is 1.9-fold lower: 45 min for the first, 86 min for the second.

Compared with `CN1CCN(C(=O)c2cccc3c2CN(C(C)(C)CCc2ccc(O)c(OC(F)(F)F)c2)C3)CC1` [compound 93], `COc1cc(CCC(C)(C)N2Cc3cccc(C(=O)N4CCN(C)CC4)c3C2)ccc1O` [compound 82] is 5.4-fold higher in “Mouse liver microsomes, MLM t½” value: 5 min for the first, 27 min for the second.

Going from `C[C@H](CCc1ccc(Cl)c(Cl)c1)N1Cc2ccc3ccccc3c2C1` [compound 19] to `C[C@H](CCc1ccc(F)cc1)N1Cc2cccc(F)c2C1` [compound 21], the “Mouse liver microsomes, MLM t½” value falls from 25 min to 7 min (3.6-fold).

Going from `CC(C)COc1cc(CCC(C)(C)N2Cc3cccc(F)c3C2)ccc1O` [compound 88] to `CC(C)Oc1cc(CCC(C)(C)N2Cc3cccc(F)c3C2)ccc1O` [compound 28], the “Mouse liver microsomes, MLM t½” value falls from 28 min to 4 min (7-fold).

Going from `COc1cc(CC[C@@H](C)N2Cc3cccc(S(C)(=O)=O)c3C2)ccc1O` [compound 65] to `COc1cc(CC[C@@H](C)N2Cc3cccc(F)c3C2)ccc1O` [compound 8], the “Mouse liver microsomes, MLM t½” value falls from 41 min to 16 min (2.6-fold).

First: CC(C)Oc1cc(CC[C@@H](C)N2Cc3ccc(S(C)(=O)=O)cc3C2)ccc1O [compound 69]
Second: C[C@H](CCc1ccc(O)c(OC(C)(C)C)c1)N1Cc2ccc(S(C)(=O)=O)cc2C1 [compound 63]
The “Mouse liver microsomes, MLM t½” value of the first is 2.4-fold higher: 75 min for the first, 31 min for the second.

First: CN(C)C(=O)c1cccc2c1CN(C(C)(C)CCc1ccc(O)c(OC(F)(F)F)c1)C2 [compound 57]
Second: CN(C)C(=O)c1cccc2c1CN(C(C)(C)CCc1ccc(O)c(OC(C)(C)C)c1)C2 [compound 59]
The “Mouse liver microsomes, MLM t½” value of the first is 3.2-fold higher: 26 min for the first, 8 min for the second.

Compared with `CC(C)Oc1cc(CC[C@@H](C)N2Cc3cccc(F)c3C2)ccc1O` [compound 26], `C[C@H](CCc1ccc(O)c(OC(C)(C)C)c1)N1Cc2cccc(F)c2C1` [60B] is 2-fold higher in “Mouse liver microsomes, MLM t½” value: 4 min for the first, 8 min for the second.

Compared with `CC(=O)N1CCN(C(=O)c2cccc3c2CN(C(C)(C)CCc2ccc(O)c(OCC(C)C)c2)C3)CC1` [compound 92], `CC(C)COc1cc(CCC(C)(C)N2Cc3cccc(C(=O)N(C)C)c3C2)ccc1O` [compound 89] is 2.4-fold higher in “Mouse liver microsomes, MLM t½” value: 7 min for the first, 17 min for the second.

`C[C@H](CCc1ccc(O)c(OC(F)(F)F)c1)N1Cc2cc3c(cc2C1)OCO3` [compound 24] and `C[C@H](CCc1ccc(O)c(OC(F)(F)F)c1)N1Cc2ccc(F)cc2C1` [compound 31] are within 1.5-fold of each other in “Mouse liver microsomes, MLM t½” value: 5 min for the first, 6 min for the second.

First: COc1cc(CCC(C)(C)N2Cc3cccc(C(=O)N(C)CCN(C)C)c3C2)ccc1O [compound 81]
Second: COCCN(C)C(=O)c1cccc2c1CN(C(C)(C)CCc1ccc(O)c(OC)c1)C2 [compound 86]
The “Mouse liver microsomes, MLM t½” value of the first is 4.6-fold higher: 88 min for the first, 19 min for the second.

Going from `COc1cc(CCC(C)(C)N2Cc3cccc(F)c3C2)ccc1O` [compound 53] to `CC(C)(CCc1ccc(O)c(OC(F)(F)F)c1)N1Cc2cccc(F)c2C1` [compound 54], the “Mouse liver microsomes, MLM t½” value falls from 21 min to 12 min (1.8-fold).

Compared with `COc1cc(CCC(C)(C)N2Cc3ccc(F)cc3C2)ccc1OCCO` [compound 45], `COc1cc(CCC(C)(C)N2Cc3cccc(F)c3C2)ccc1OCCO` [compound 44] is 3.3-fold lower in “Mouse liver microsomes, MLM t½” value: 96 min for the first, 29 min for the second.

Compared with `COc1cc(CCC(C)(C)N2Cc3ccc(F)cc3C2)ccc1OC(=O)N(C)C` [compound 50], `CC(C)(CCc1ccc(F)cc1)N1Cc2ccc(F)cc2C1` [compound 35] is 3.7-fold lower in “Mouse liver microsomes, MLM t½” value: 33 min for the first, 9 min for the second.

Compared with `CC(C)(CCc1ccc(O)c(OC(F)(F)F)c1)N1Cc2cccc(S(C)(=O)=O)c2C1` [compound 67], `CC(C)(C)Oc1cc(CCC(C)(C)N2Cc3c(F)ccc(F)c3C2)ccc1O` [compound 74] is 1.9-fold lower in “Mouse liver microsomes, MLM t½” value: 39 min for the first, 21 min for the second.

Going from `COc1cc(CC[C@@H](C)N2Cc3cccc(F)c3C2)ccc1OCCO` [compound 51] to `C[C@H](CCc1ccc(O)c(OC(C)(C)C)c1)N1Cc2c(F)ccc(F)c2C1` [60A], the “Mouse liver microsomes, MLM t½” value falls from 66 min to 5 min (13-fold).

First: COc1cc(CCC(C)(C)N2Cc3cccc(C(=O)NCCN(C)C)c3C2)ccc1O [compound 78]
Second: C[C@H](CCc1ccc(F)cc1)N1Cc2cc3c(cc2C1)OCO3 [compound 23]
The “Mouse liver microsomes, MLM t½” value of the first is 90-fold higher: 450 min for the first, 5 min for the second.

In the case of `C[C@H](CCc1ccc(F)cc1)N1Cc2ccc(F)cc2C1` [compound 22], the “Mouse liver microsomes, MLM t½” value is reported as 7 min.
